In patent US9725490B2, “ERAP1-derived peptide and use thereof” (TOKUSHIMA UNIVERSITY, priority 2011, dated 2017):

System: MCF-10A cells
Experiment: Cell proliferation assay, normal epithelial MCF-10A
Assay type: cell-based, human
Details: 24 hours
Method: FIG. 6-1 is a diagram illustrating that ERAP1-peptide treatment suppresses ERα-dependent cell proliferation of breast cancer cell lines. (A) and (B) show the results of MTT assay by which the inhibition effect of the ERAP1-peptide in the E2-dependent cell proliferation was evaluated. MCF-7 cells were treated with the ERAP1-peptide (A, B) the ERAP1-scramble peptide (B) or the ERAP1-mutant peptide (B).
Using Cell-Counting Kit-8 (CCK-8, Dojindo, Kumamoto, Japan), the cell proliferation assay was performed. The cells were harvested, and plated in 2×10^4 cells/well on a 48-well plate, and maintained at 37° C. in a humidified incubator. At the indicated time points, the cells were added with a CCK-8 solution diluted to 1:10, and incubated for 1 hour. Then, the absorbance at 450 nm was measured and the number of living cells in each well was calculated.

CSCC[C@H](NC(=O)[C@H](CCC(N)=O)NC(=O)[C@H](CCCNC(=N)N)NC(=O)[C@H](CCCNC(=N)N)NC(=O)[C@H](CCCNC(=N)N)NC(=O)[C@H](CCCNC(=N)N)NC(=O)[C@H](CCCNC(=N)N)NC(=O)[C@H](CCCNC(=N)N)NC(=O)[C@H](CCCNC(=N)N)NC(=O)[C@H](CCCNC(=N)N)NC(=O)[C@H](CCCNC(=N)N)NC(=O)[C@H](CCCNC(=N)N)NC(=O)[C@@H](N)CCCNC(=N)N)C(=O)N[C@@H](CC(C)C)C(=O)N[C@@H](CO)C(=O)N[C@@H](CC(=O)O)C(=O)N[C@@H](CC(C)C)C(=O)N[C@H](C(=O)N[C@@H](CC(C)C)C(=O)N[C@@H](CCC(N)=O)C(=O)N[C@@H](CC(C)C)C(=O)N[C@@H](CCCNC(=N)N)C(=O)N[C@@H](CCC(N)=O)C(=O)N[C@@H](CCCNC(=N)N)C(=O)O)[C@@H](C)O [ERAP1-peptide] was tested. Which cell proliferation did it give?
Its cell proliferation is “had no influence on the cell proliferation at all”.
